Entries after “also recorded” stand apart in the source; their conditions may differ.
Assays:
apoE3 = experiment: ELISA of apoE3 levels in conditioned media of compound-treated mouse cortical astrocyte cells; assay type: cell-based; conditions: for ApoE3 Levels in Cell Media, Average of Three Tests / ApoE3 Levels in Cell Media, Test 1 / ApoE3 Levels in Cell Media, Test 2 / ApoE3 Levels in Cell Media, Test 3: 10 μM compound, 24 hours, normalized to cell protein, relative to DMSO treated cells
Procedure: ApoE inhibition can be readily determined by any one of several assays and techniques known to those of ordinary skill in the art, including the enzyme-linked immunosorbant assay (ELISA). In the experimental results shown in Table 2 and FIG. 5, the ELISA assay was carried out on cortical astrocyte cells from mice. Astrocyte cells produce apoE, LDLR and AbcA1 proteins.
The experiments involved treating mouse cortical astrocyte cells with the claimed compounds at 10 μM concentration for an incubation time of 24 hrs. DMSO solvent was used as a negative control, because the compounds were dissolved in DMSO when applied to the cells.
The ELISA technique involves immobilizing an apoE-specific capture antibody to a 96-well plate, addition of sample (conditioned medium from mouse cortical astrocyte cells treated with the compound for 24 hours), and detection of the bound apoE using a second apoE-specific biotinylated antibody and streptavidin-HRP.
The Mabtech ELISA kit detects the presence of the three apoE isoforms: apoE2, apoE3, and apoE4.
To obtain the data shown in Table 2 and FIG. 5, the mouse cortical astrocyte cells were maintained in DMEM medium (Invitrogen) supplemented with 10 mM HEPES, 1 mM sodium pyruvate, 4.5 g/L glucose, 1% penicillin/streptomycin, and 10% fetal bovine growth serum (Invitrogen) at 37° C., with 5% CO2.
The cells (6×10^4 cells/24-well plate) were grown for 1 day in RPMI, followed by a 24 hour equilibration in serum-free Opti-MEM (Life Technologies). Treatments were carried out in triplicate with […] of fresh Opti-MEM containing 10 μM of compound or vehicle (0.1% DMSO) for 24 hours. […] ApoE concentration in the sample was calculated based on a standard curve derived using known amounts of purified apoE (from Biodesign).
The protein levels in the cells in the 24-well plates were measured using BCA Protein Assay Kit (from Pierce) and used to normalize the data. […] Sample apoE3 concentrations were represented relative to the DMSO treated cells.
The bars in FIG. 5 reflect the respective mean level apoE3 in the media for each compound with an indication of one […].

LDLR = experiment: SDS-PAGE/Western blot of LDLR expression in E3 astrocyte cells; assay type: cell-based, mouse; conditions: 10 μM, 24 hrs, Western blot, FIGS. 6 and 7
Procedure: Experiments were set up to test whether the claimed compounds increase LDLR expression in cortical astrocyte cells. The experiments involved treating mouse cortical astrocyte cells (E3 astrocyte cells) with the claimed compounds at 10 μM concentration for an incubation time of 24 hrs. DMSO solvent was used as a negative control, because the compounds were dissolved in DMSO when applied to the cells.
(§1) Western blot protocol and analysis was used to determine the LDLR levels in the E3 astrocyte cells. The western blot, otherwise known as a protein immunoblot, is a widely used analytical technique used to detect specific proteins in a cell culture or tissue sample. It uses gel electrophoresis to separate proteins by 3-D structure or denatured proteins by the length of the polypeptide. The proteins are then transferred to a membrane (typically nitrocellulose or PVDF), where they are stained with antibodies specific to the target protein. […] FIGS. 6 and 7 show gel images showing the effects the claimed compounds have on the target proteins. The protein bands show the presence and amount of each target protein present in the media from treated cells (compound numbers shown in the column headers).
(§2) In this case, after the 24-hour culture period, the treated cell media from cells treated with each respective compound were run by electrophoresis on polyacrylamide gel containing sodium dodecyl sulfate (SDS). The proteins from the SDS-PAGE process were then transferred to a nitrocellulose […] and stained.
(§3) FIGS. 6 and 7 show the presence of the following proteins in mouse E3 astrocyte cells: AbcA1, LDLR, ApoE3, and GAPDH. The GAPDH protein serves as the loading control protein for the western blot analysis. For each of the claimed compounds, FIGS. 6 and 7 show three samples run to determine the presence and amount of each indicated protein. The three samples for each treatment compound are indicated by the line under the compound number—the line stretches across three columns of protein bands.
(§4) The E3 astrocyte cells (1.6×10^4 cells/96-well plate) were grown for 1 day in RPMI, followed by a 24 hour equilibration in serum-free Opti-MEM (Life Technologies). Treatments were carried out in triplicate with […] of fresh Opti-MEM containing 10 μM of compound or vehicle (0.1% DMSO) for 24 hours. After the incubation time, the cellular media was collected as samples.
(§5) The collected samples were prepared for SDS-PAGE and western blot analysis by centrifuging and then extracting the protein by TCA-precipitation. The extracted protein was then resuspended in a Tris buffer.
(§6) After incubation and collection, the samples were run on a SDS-polyacrylamide gel (10% SDS). The SDS-polyacrylamide gel comprises the following:
(§7) Each sample was prepared to run on the SDS-polyacrylamide gel. About 20 μL of each sample was prepared to be run in the gel. The samples were prepared comprising the following:
(§8) The SDS-PAGE process was run with SDS-PAGE running buffer (Tris base, glycine, and 10% SDS) at 150 V until the dye front reached the bottom of the gel.
(§9) For the western blot portion of the analysis, the separated protein bands in the gel are then transferred to a nitrocellulose membrane by methods well known in the art. Following the western blot transfer, the blot is rinsed several times with dH2O to remove the salts. After blocking unreacted sites on the nitrocellulose membrane, all protein bands are stained with 0.5% Ponceau S (0.5 g Ponceau S, 1 ml Glacial HAc, 99 ml dH2O) and the target protein antibody.
(§10) The antibodies used for staining AbcA1 were obtained from Novus (NB100-2068). The antibodies used for staining LDLR were obtained from MBL International (JM-3839). The antibodies used for staining intracellular apoE were obtained from Meridian Life Science (K74180B). The antibodies used for staining GAPDH were obtained from Santa Cruz (sc-25778).

AbcA1 = experiment: SDS-PAGE/Western blot of AbcA1 expression in E3 astrocyte cells; assay type: cell-based, mouse; conditions: 10 μM, 24 hrs, Western blot, FIGS. 6 and 7
Source text: as §1, §2, §3
AbcA1 protein plays a key role in regulating cholesterol in biological systems and therefore affects amyloid beta plaque formation. The goal of the biological screen (results shown in FIGS. 6 and 7) was to find compounds that prevent amyloid beta (Aβ) plaque formation, one of the deleterious causes of Alzheimer's Disease.
as §4, §5, §6, §7, §8, §9, §10

| Structure (SMILES) | ApoE3 Levels in Cell Media, Average of Three Tests (apoE3) | ApoE3 Levels in Cell Media, Test 1 (apoE3) | ApoE3 Levels in Cell Media, Test 2 (apoE3) | ApoE3 Levels in Cell Media, Test 3 (apoE3) | LDLR expression (amount of LDLR protein) compared to the DMSO control (LDLR) | AbcA1 expression compared to the DMSO control (AbcA1) | apoE (apoE3) expression compared to the control DMSO, in words (apoE3; 10 μM, 24 hrs, ELISA of media) |
| --- | --- | --- | --- | --- | --- | --- | --- |
| CCC(C)NC(=O)c1ccc2ccccc2c1 (centres unmarked) [Compound 88, naphthalene-2-carboxylic acid sec-butylamide] | 100.678 % of the DMSO control | 104.1856 % of the DMSO control | 95.94 % of the DMSO control | 101.9038 % of the DMSO control | increase |  |  |
| CC(C)CNC(=O)c1ccc2ccccc2c1 [Compound 89] | 129.8502 % of the DMSO control | 110.4906 % of the DMSO control | 131.1414 % of the DMSO control | 147.9187 % of the DMSO control | increase |  |  |
| O=S(=O)(c1ccc2ccccc2c1)N1CCOCC1 [Compound 95] | 96.13 % of the DMSO control | 86.87 % of the DMSO control | 92.02 % of the DMSO control | 109.5 % of the DMSO control | increase |  |  |
| O=S(=O)(c1ccc2ccccc2c1)N1CCCC1 [Compound 96] | 118.6531 % of the DMSO control | 104.9618 % of the DMSO control | 132.594 % of the DMSO control | 118.4035 % of the DMSO control | increase |  |  |
| O=S(=O)(c1ccc2ccccc2c1)N1CCCCC1 [Compound 97] | 86.86 % of the DMSO control | 90.22 % of the DMSO control | 90.28 % of the DMSO control | 80.08 % of the DMSO control | increase |  |  |
| O=C(Nc1ccccc1)c1ccc2ccccc2c1 [Compound 98] | 76.25 % of the DMSO control | 74.22 % of the DMSO control | 79 % of the DMSO control | 75.5362 % of the DMSO control |  | decrease |  |
| O=S(=O)(Nc1ccc(Br)cc1)c1ccc2ccccc2c1 [Compound 103] | 109.1222 % of the DMSO control | 84.78 % of the DMSO control | 113.1319 % of the DMSO control | 129.4577 % of the DMSO control | increased | increase |  |
| O=S(=O)(NCc1ccccc1)c1cccc2ccccc12 [Compound 125] | 88.78 % of the DMSO control | 82.44 % of the DMSO control | 91.39 % of the DMSO control | 92.51 % of the DMSO control | increased | increase |  |
| CCN(CC)S(=O)(=O)c1ccc2ccccc2c1 [Compound 129] | 81.14 % of the DMSO control | 80.4063 % of the DMSO control | 82.82 % of the DMSO control | 80.19 % of the DMSO control |  | decrease |  |
| CC(C)CNS(=O)(=O)c1ccc(-c2ccccc2)cc1 [Compound 133] | 73.18 % of the DMSO control | 81.61 % of the DMSO control | 72.54 % of the DMSO control | 65.4 % of the DMSO control |  | decrease |  |
| O=S(=O)(c1ccc(-c2ccccc2)cc1)N1CCOCC1 [Compound 134] | 84.75 % of the DMSO control | 81.07 % of the DMSO control | 90.3 % of the DMSO control | 82.89 % of the DMSO control | increased | increase |  |
| O=S(=O)(NC1CCCCC1)c1ccc(-c2ccccc2)cc1 [Compound 136] | 89.73 % of the DMSO control | 89.58 % of the DMSO control | 91.2 % of the DMSO control | 88.41 % of the DMSO control | increase |  |  |
| CC(NS(=O)(=O)c1ccc(-c2ccccc2)cc1)c1ccccc1 (centres unmarked) [Compound 137] | 88.63 % of the DMSO control | 79.41 % of the DMSO control | 86.65 % of the DMSO control | 99.83 % of the DMSO control | increase |  |  |
| CCCCN(CCCC)Cc1ccc2ccccc2c1 [Compound 139] | 74.779 % of the DMSO control | 67.21 % of the DMSO control | 81.69 % of the DMSO control | 75.44 % of the DMSO control | increased | decreases AbcA1 expression significantly; also recorded: decrease |  |
| c1ccc(C(c2ccccc2)(c2ccc3ccccc3c2)N2CCOCC2)cc1 [Triarylmethyl Amine Compound No. 38, reference compound] | 79.07 % of the DMSO control | 76.4862 % of the DMSO control | 92.35 % of the DMSO control | 68.38 % of the DMSO control |  | significantly decrease or inhibit; also recorded: decrease | effectively decrease |
